Each structure is given as a SMILES string.

For one assay, the system named is Undaria. Put plainly: Sensitivity of Undaria to antibiotics/herbicide (selectable reagents). As to conditions: qualitative ranking. The format is in vivo.
Another assay concerns Laminaria. Description: Sensitivity of Laminaria to antibiotics/herbicide (selectable reagents). The assay is classed as in vivo. As to conditions: qualitative ranking.

Take `O=C(N[C@H](CO)[C@H](O)c1ccc([N+](=O)[O-])cc1)C(Cl)Cl` [chloramphenicol]: the “sensitivity of the seaweed to the antibiotic or herbicide” value in the assay with Undaria and with Laminaria was “sensitive” in each case.

These data come from patent US7663026B2, “Transformation of seaweed utilizing biolistic gene transfer to spores” (Institute of Oceanology Chinese Academy of Sciences, priority 2003, dated 2010).
